Assay results reported in publication PMC7839234 (FASEB journal : official publication of the Federation of …, 2020).

Tests used:
Type in all cases: cell-based
[1] = target: T1, SLC22A15 (Homo sapiens, UniProt Q8IZD6)
[2] = target: T1, SLC22A15; test: radiolabelled uptake in transfected HEK293 Flp-In cells
[3] = target: T2, SLC22A4 (Homo sapiens, UniProt Q9H015); test: as above
T2 sequence (Q9H015 1-551): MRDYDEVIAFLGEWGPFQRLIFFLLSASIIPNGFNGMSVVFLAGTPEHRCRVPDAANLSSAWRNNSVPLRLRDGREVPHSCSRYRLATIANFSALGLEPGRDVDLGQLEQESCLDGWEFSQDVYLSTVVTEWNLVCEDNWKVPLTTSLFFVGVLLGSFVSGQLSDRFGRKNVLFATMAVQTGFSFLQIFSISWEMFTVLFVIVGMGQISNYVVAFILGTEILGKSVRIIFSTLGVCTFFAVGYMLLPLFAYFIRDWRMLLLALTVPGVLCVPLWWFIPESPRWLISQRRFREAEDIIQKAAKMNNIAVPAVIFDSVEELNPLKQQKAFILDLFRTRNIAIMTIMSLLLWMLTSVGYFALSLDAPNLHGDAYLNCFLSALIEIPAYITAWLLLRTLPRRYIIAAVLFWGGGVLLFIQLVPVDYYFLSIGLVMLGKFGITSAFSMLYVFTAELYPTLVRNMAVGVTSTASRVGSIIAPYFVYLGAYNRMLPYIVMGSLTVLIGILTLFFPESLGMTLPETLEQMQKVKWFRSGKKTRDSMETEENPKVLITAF

T1 sequence (Q8IZD6 whole entry): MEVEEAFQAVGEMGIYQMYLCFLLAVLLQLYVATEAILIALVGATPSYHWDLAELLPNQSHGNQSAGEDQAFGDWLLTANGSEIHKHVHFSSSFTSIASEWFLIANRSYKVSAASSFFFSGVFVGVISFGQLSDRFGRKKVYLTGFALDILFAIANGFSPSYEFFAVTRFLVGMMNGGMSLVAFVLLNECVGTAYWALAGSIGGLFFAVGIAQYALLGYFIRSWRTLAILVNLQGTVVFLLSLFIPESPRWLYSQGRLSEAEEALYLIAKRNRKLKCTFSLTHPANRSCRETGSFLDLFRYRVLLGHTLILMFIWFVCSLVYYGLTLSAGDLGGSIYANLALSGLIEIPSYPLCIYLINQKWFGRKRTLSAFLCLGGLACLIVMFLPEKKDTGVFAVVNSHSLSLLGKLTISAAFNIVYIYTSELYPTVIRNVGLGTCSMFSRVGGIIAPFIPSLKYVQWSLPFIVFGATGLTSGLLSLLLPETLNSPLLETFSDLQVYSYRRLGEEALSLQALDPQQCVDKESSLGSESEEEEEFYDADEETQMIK

## O=S(=O)(O)CCN1CCN(CCO)CC1 [HEPES, 4-(2-hydroxyethyl)-1-piperazineethanesulfonic acid]
[1]
  IC50: 5.8 ± 1.4 mM

## C[N+](C)(C)CC(=O)O [betaine]
[2]
  radiolabelled uptake in transfected HEK293 Flp-In cells: highest fold-uptake over empty vector were the zwitterions: ergothioneine, carnosine and betaine

## C[N+](C)(C)[C@@H](Cc1c[nH]c(=S)[nH]1)C(=O)[O-] [ergothioneine]
[3]
  radiolabelled uptake in transfected HEK293 Flp-In cells: only SLC22A4 and SLC22A15 showed significant uptake of ergothioneine over EV cells (Fig. 3B)
